Results: publication PMC8398451, “Molecular Engineering of Curcumin, an Active Constituent of Curcuma longa L. (Turmeric) of the Family Zingiberaceae with Improved Antiproliferative Activity” (Plants, 2021)
Where two headings read alike, the source gives them in different places.

Key:
HCT-116 = test: NCI antiproliferative SRB assay, Colon Cancer panel; format: cell-based, Human
HCT-15 = test: as above; format: cell-based, Human
OVCAR-3 = test: NCI antiproliferative SRB assay, Ovarian Cancer panel; format: cell-based, Human
[1] = tested on: Ovarian Cancer cell line panel; test: NCI antiproliferative assay, panel summary; format: cell-based, Human
[2] = tested on: Non-Small Cell Lung Cancer cell line panel; test: NCI antiproliferative assay, panel summary; format: cell-based, Human
MOLT-4 = test: NCI antiproliferative SRB assay, Leukemia panel; format: cell-based, Human
COLO 205 = test: NCI antiproliferative SRB assay, Colon Cancer panel; format: cell-based, Human
SK-MEL-5 = test: NCI antiproliferative SRB assay, Melanoma panel; format: cell-based, Human
Melanoma cell line panel = test: NCI antiproliferative assay, panel summary; format: cell-based, Human
UO-31 = test: NCI antiproliferative SRB assay, Renal Cancer panel; format: cell-based, Human
[3] = tested on: Prostate Cancer cell line panel; test: NCI antiproliferative assay, panel summary; format: cell-based, Human
60 NCI cancer cell lines = test: NCI antiproliferative assay, summary over all lines; format: cell-based; conditions: for GI50: Homo sapiens, 5-dose assay
IGROV1 = test: NCI antiproliferative SRB assay, Ovarian Cancer panel; format: cell-based, Human
HL-60(TB) = test: cells; format: cell-based
MDA-MB-468 = test: NCI antiproliferative SRB assay, Breast Cancer panel; format: cell-based, Human
Method: The antiproliferative activity of tested compounds was done against five dozen (60) cancer cell lines derived from nine different panels. All of the compounds were evaluated for antiproliferative activity in a single dose at 10 µM. Growth percent (GP) and percent growth inhibition (% GI) were used to calculate antiproliferative activity. […] The antiproliferative results of five-dose assay were calculated as three dose related parameters like, 50% growth inhibition (GI50), 50% lethal concentration (LC50), and total growth inhibition TGI [43, 44, 45, 46, 47].
Human tumor cell lines were grown in RPMI 1640 medium containing 5% fetal bovine serum and 2 mM L-glutamine. For a typical screening experiment, cells were inoculated into 96-well microtiter plates in 100 µL at plating densities ranging from 5000 to 40,000 cells/well, depending on the doubling time of individual cell lines. Two plates of each cell line were fixed in situ with trichloroacetic acid (TCA) after 24 h to represent a cell population measurement for each cell line at the time of drug addition (Ti). The experimental drugs were frozen after being solubilized in dimethyl sulfoxide at 400-fold the desired final maximum test concentration. An aliquot of frozen concentrate was thawed and diluted to twice the desired final maximum test concentration with medium containing 50 µg/mL gentamicin at the time of drug addition. Additional four, 10-fold, or ½ log serial dilutions serial dilutions were performed to provide a total of five drug concentrations plus the control. Aliquots of 100 µL of these different drug dilutions were added to the appropriate microtiter wells already containing 100 µL of medium, resulting in the required final drug concentrations. Following drug addition, the plates are incubated for an additional 48 h at 37 °C, 5% CO2, 95% air, and 100% relative humidity. For adherent cells, the assay is terminated by the addition of cold TCA. Cells are fixed in situ by the gentle addition of 50 µL of cold 50% (w/v) TCA (final concentration, 10% TCA) and incubated for 60 min at 4 °C. The supernatant is discarded, and the plates are washed five times with tap water and air dried. Sulforhodamine B (SRB) solution (100 µL) at 0.4% (w/v) in 1% acetic acid was added to each well, and plates were incubated for 10 min at room temperature. After staining, unbound dye was removed by washing five times with 1% acetic acid and the plates were air dried. Bound stain was subsequently solubilized with 10 mM trizma base, and the absorbance was read on an automated plate reader at a wavelength of 515 nm. For suspension cells, the methodology was the same except that the assay was terminated by fixing settled cells at the bottom of the wells by gently adding 50 µL of 80% TCA (final concentration, 16% TCA). […]
Antiproliferative activity
The anticancer screening was carried ou t as per the NCI US protocol. Using the seven absorbance measurements (time zero, (Ti), control growth, (C), and test growth in the presence of drug at the five concentration levels (Tf)), the percentage growth was calculated at each of the drug concentrations level as [( Tf−Ti × 100 for concentrations for which Tf ≥ Ti, and Tf−Ti × 100 for […]
concentrations for which Tf < Ti.
Three-dose response parameters (GI50, TGI, and LC50) were calculated for each of the experimental agents. Growth inhibition of 50% (GI50) was calculated from 100 × Tf−Ti = 50, , which was […]
the drug concentration resulting in a 50% reduction in the net protein increase (as measured by sulforhodamine B, SRB staining) in control cells during the drug incubation. The total growth inhibition (TGI) was calculated from Tf = Ti, which was the drug concentration resulting in total growth inhibition and signified the cytostatic effect. The LC50 was calculated from 100 × Tf−Ti = −50, , indicating a net loss […]
of cells following treatment which indicated the concentration of drug resulting in a 50% reduction in the […]

[4] = Homo sapiens, 5-dose 0.01-100 µM
[5] = Homo sapiens, 5-dose 0.01-100 µM, read-out: LC50 (the source's name)
[6] = Homo sapiens, 5-dose assay, read-out: Sub Panel MID b (mean GI50 of panel)
[7] = mean over cell lines, one dose 10 µM

COc1cc(/C=C/c2cc(/C=C/c3ccc(O)c(OC)c3)n(C(=O)Nc3ccc(C(F)(F)F)cc3)n2)ccc1O [3c]
TGI (HCT-116; 5-dose 0.01-100 µM): 2.94 µM
GI50 (HCT-116; [4]): 1.51 µM
CC50 (HCT-116; [5]): 5.7 µM
%GI (HCT-116; one dose 10 µM): 153.67%
GP (growth percent) (HCT-116; one dose 10 µM): −53.67
TGI (HCT-15; 5-dose 0.01-100 µM): 9.63 µM
GI50 (HCT-15; [4]): 2.69 µM
CC50 (HCT-15; [5]): > 100 µM
%GI (HCT-15; one dose 10 µM): 74.49%
GP (growth percent) (HCT-15; one dose 10 µM): 25.51
TGI (OVCAR-3; 5-dose 0.01-100 µM): 26.7 µM
GI50 (OVCAR-3; [4]): 3.41 µM
CC50 (OVCAR-3; [5]): > 100 µM
%GI (OVCAR-3; one dose 10 µM): 86.24%
GP (growth percent) (OVCAR-3; one dose 10 µM): 13.76
Mean % GI ([1]; 10 µM): 47.62%
Selectivity Ratio (MID a:MID b) ([1]; 5-dose assay): 0.88
GI50 [1, 6]: 3.24 µM
Mean % GI ([2]; 10 µM): 48.83%
Selectivity Ratio (MID a:MID b) ([2]; 5-dose assay): 0.82
GI50 [2, 6]: 3.44 µM
TGI (MOLT-4; 5-dose 0.01-100 µM): 20.0 µM
GI50 (MOLT-4; [4]): 2.73 µM
CC50 (MOLT-4; [5]): > 100 µM
%GI (MOLT-4; one dose 10 µM): 88.91%
GP (growth percent) (MOLT-4; one dose 10 µM): 11.09
TGI (COLO 205; 5-dose 0.01-100 µM): 4.50 µM
GI50 (COLO 205; [4]): 2.05 µM
CC50 (COLO 205; [5]): 9.91 µM
%GI (COLO 205; one dose 10 µM): 48.73%
GP (growth percent) (COLO 205; one dose 10 µM): 51.27
TGI (SK-MEL-5; 5-dose 0.01-100 µM): 6.89 µM
GI50 (SK-MEL-5; [4]): 2.27 µM
CC50 (SK-MEL-5; [5]): 28 µM
%GI (SK-MEL-5; one dose 10 µM): 64.60%
GP (growth percent) (SK-MEL-5; one dose 10 µM): 35.40
Mean % GI (Melanoma cell line panel; 10 µM): 60.81%
GI50 (Melanoma cell line panel; [6]): 2.51 µM
GI50 (UO-31; [4]): 1.94 µM
LC50 (50% lethal concentration) (UO-31; [4]): > 100 µM
%GI (UO-31; one dose 10 µM): 57.15%
GP (growth percent) (UO-31; one dose 10 µM): 42.85
Mean % GI ([3]; 10 µM): 57.21%
Selectivity Ratio (MID a:MID b) ([3]; 5-dose assay): 0.82
GI50 [3, 6]: 3.44 µM
GI50 (60 NCI cancer cell lines; read-out: GI50 values, range over cell lines): 1.48 to 7.29 µM
GI50 (60 NCI cancer cell lines; read-out: MID a (mean GI50 of 60 NCI cancer cell lines)): 2.84 µM
Mean % GI (60 NCI cancer cell lines; [7]): 59.26%
Mean GP (60 NCI cancer cell lines; [7]): 40.74
TGI (IGROV1; 5-dose 0.01-100 µM): 11.6 µM
GI50 (IGROV1; Homo sapiens, IGROV-1, 5-dose 0.01-100 µM): 2.77 µM
CC50 (IGROV1; Homo sapiens, IGROV-1, 5-dose 0.01-100 µM, read-out: LC50 (the source's name)): > 100 µM
%GI (IGROV1; one dose 10 µM): 57.18%
GP (growth percent) (IGROV1; one dose 10 µM): 42.82
TGI (HL-60(TB); 5-dose 0.01-100 µM): 6.45 µM
GI50 (HL-60(TB); [4]): 1.98 µM
CC50 (HL-60(TB); [5]): > 100 µM
%GI (HL-60(TB); one dose 10 µM): 84.83%
GP (growth percent) (HL-60(TB); one dose 10 µM): 15.17
LC50 (50% lethal concentration) (MDA-MB-468; Homo sapiens, MDA-MB-468, read-out: LC50): > 100 µM
GI50 (MDA-MB-468; Homo sapiens, MDA-MB-468, 5-dose 0.01-100 µM): 2.3 µM
TGI (MDA-MB-468; MDA-MB-468, 5-dose 0.01-100 µM): 6.25 µM
%GI (MDA-MB-468; MDA-MB-468, one dose 10 µM): 56.21%
GP (growth percent) (MDA-MB-468; MDA-MB-468, one dose 10 µM): 43.79
